Experiments:
[1] = test system: blood glucose levels; assay: Decrease in % blood glucose levels after intra-ileal administration; format: in vivo, Male Sprague Dawley rats; details: 50 IU/kg
[2] = test system: blood glucose levels; assay: Decrease in % blood glucose levels after intra-gastric administration; format: in vivo, Male Sprague Dawley rats; details: 50 IU/kg
[3] = test system: blood glucose levels; assay: % blood glucose decrease after intranasal administration; format: in vivo, Male Sprague Dawley rats; details: for Tmax of % blood glucose decrease: sampling times in minutes
Method: The cannulation of the carotis communis artery for the collection of blood samples was also performed as described in Example 1 as was the determination of plasma levels and blood glucose levels.

[4] = rat, in vivo
Method: Male Sprague Dawley rats with a body mass of between 240 and 336 g were used as experimental in vivo model to investigate the absorption and efficacy enhancing capabilities of the current invention.
In this study, insulin was directly administered into the stomach, ileum or duodenum of the animals. […] Six animals were used for each group in the study. Rats were fasted 18 hours prior to drug administration but water was supplied ad libitum. […] The conditions under which the rats were bred and kept were 21° C. with a relative humidity of 55%, a light intensity of between 350-400 lux one meter above floor level with light cycles of 12 hours light and 12 dark and 18 air changes per minute.
Subcutaneous injection of insulin in one group was used to validate assaying procedures. The normal rat glucose and insulin profile was determined in a group that received only saline; this group acted as biological reference.
Cannulation of the artery carotis communis, ensured that sufficient blood volumes from the same rat at different time intervals could be obtained for analysis. Anaesthesia was induced by halothane and lasted for ±3 hours. All surgical procedures necessary for the cannulation of the carotis communis were carried out while the rats were under anaesthesia. […]

Insulin in saline: Control: recombinant human insulin (Sigma-Aldrich) in saline solution without any enhancing agent
AUC, decrease in the % of blood glucose levels [1]: 13.81
Tmax, decrease in the % of blood glucose levels [1]: 10 min
AUC, decrease in the % of blood glucose levels [2]: 275.5
Tmax, decrease in the % of blood glucose levels [2]: 30 min
AUC of % blood glucose decrease ([3]; 8 IU/kg): 46
Cmax of % blood glucose decrease ([3]; 8 IU/kg): 10.03%
Tmax of % blood glucose decrease ([3]; 8 IU/kg): 15
% blood glucose decrease ([3]; 8 IU/kg, time 0 min): 0%
% blood glucose decrease ([3]; 8 IU/kg, time 5 min): −1.18%
% blood glucose decrease ([3]; 8 IU/kg, time 10 min): 5.58%
% blood glucose decrease ([3]; 8 IU/kg, time 15 min): 10.033%
% blood glucose decrease ([3]; 8 IU/kg, time 30 min): 5.27%
% blood glucose decrease ([3]; 8 IU/kg, time 60 min): 3.47%
% blood glucose decrease ([3]; 8 IU/kg, time 120 min): 2.05%
% blood glucose decrease ([3]; 8 IU/kg, time 180 min): −26.58%
AUC of % blood glucose decrease ([3]; 12 IU/kg): 32.2
Cmax of % blood glucose decrease ([3]; 12 IU/kg): 6.48%
Tmax of % blood glucose decrease ([3]; 12 IU/kg): 5
% blood glucose decrease ([3]; 12 IU/kg, time 0 min): 0%
% blood glucose decrease ([3]; 12 IU/kg, time 5 min): 6.48%
% blood glucose decrease ([3]; 12 IU/kg, time 10 min): −0.08%
% blood glucose decrease ([3]; 12 IU/kg, time 15 min): −4.4%
% blood glucose decrease ([3]; 12 IU/kg, time 30 min): −8.32%
% blood glucose decrease ([3]; 12 IU/kg, time 60 min): −13.98%
% blood glucose decrease ([3]; 12 IU/kg, time 120 min): −30.7%
% blood glucose decrease ([3]; 12 IU/kg, time 180 min): −40.55%
Tmax [4]: 5 min

— US20130344157A1, “ENHANCEMENT OF THE EFFICACY OF THERAPEUTIC PROTEINS” (North-West University, priority 2007, published 2013)
